The structures appear in SMILES notation. Several values for one entry are separate records, joined by “and”; a condition that tells them apart may be missing. Equal entries are not always repeated.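 48-hour exposure; five concentrations; linearly interpolated endpoints. At the GI50, growth is halved.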 Activity calls are given as the source filed them. No stated cut-off is given here; in the data, active = GI50 up to about 1.1 µM and inactive = higher.

Test systems include UO-31; T47D; MOLT-4; SNB-75; OVCAR-4; NCI-H23; SN12C; HCT-116; HCT-15; RXF 393; A549; NCI-H522; UACC-62; NCI-H226; Malme-3M; TK-10; CAKI-1; CCRF-CEM; SK-OV-3; K562.
What all share (experiment): NCI-60 cell line screen, 48 h

Turning to `CCOC(=O)c1c(OCC)[nH]c(=O)c(C(c2cccs2)c2c(O)c(C(=O)OCC)c(OCC)[nH]c2=O)c1O`, the GI50 is 10.9 µM (inactive) with UO-31; 0.0989 µM (active) with T47D; 6.47 µM (inactive) in the test on MOLT-4; 0.082 µM (active) in the test on SNB-75; 17.6 µM (inactive) in the test with OVCAR-4; 21.4 µM (inactive) in the test with NCI-H23. Further, the GI50 is 15.4 µM (inactive) in the test with SN12C; 17.5 µM (inactive) in the test with HCT-116; 14.5 µM in the test with HCT-15; 1.7 µM (inactive) in the test on RXF 393; 14.5 µM (inactive) in the test with A549; 13.8 µM (inactive) in the test on NCI-H522. Further, the GI50 with UACC-62 is 14.2 µM (inactive); in the test with NCI-H226, 3.9 µM (inactive); in the test on Malme-3M it was 8.36 µM (inactive); in the test with TK-10 it was 25.4 µM (inactive); in the test with CAKI-1 it was 18 µM (inactive); with CCRF-CEM it was 14.2 µM (inactive).

Consider `CC(=O)OCC1OC(n2c(N)c(C#N)c(C)c(C#N)c2=S)C(OC(C)=O)C(OC(C)=O)C1OC(C)=O` (stereo unspecified), for which the GI50 with UO-31, in the test with T47D, in the test with MOLT-4, in the test with SNB-75, in the test with OVCAR-4 and with NCI-H23 was > 100 µM (inactive) each time. Also, the GI50 in the test with SN12C is > 100 µM (inactive); in the test on HCT-116, > 100 µM (inactive); in the test with HCT-15, over 100 µM; in the test on RXF 393 it was > 100 µM (inactive); in the test on A549, > 100 µM (inactive); with NCI-H522, > 100 µM (inactive). Moreover, the GI50 is > 100 µM (inactive) in the test on UACC-62; > 100 µM (inactive) with SK-OV-3; > 100 µM (inactive) with NCI-H226; > 100 µM (inactive) and 78.5 µM (inactive) in the test on Malme-3M; > 100 µM (inactive) in the test with TK-10; > 100 µM (inactive) in the test with CAKI-1. For the same compound, the GI50 with CCRF-CEM was > 100 µM (inactive).

With `CC(C)N1C=[N+](C(C)C)CC1`, the GI50 in the test on UO-31, in the test with T47D, in the test on SNB-75, with OVCAR-4, with NCI-H23 and in the test on SN12C was > 100 µM (inactive) in each case. The GI50 in the test with HCT-116 is > 100 µM (inactive); in the test on HCT-15, over 100 µM; in the test with RXF 393, > 100 µM (inactive); with A549 it was > 100 µM (inactive); in the test with NCI-H522, > 100 µM (inactive); in the test with K562, > 100 µM (inactive). Further, the GI50 in the test with SK-OV-3, in the test on NCI-H226, with Malme-3M, in the test on TK-10, with CAKI-1 and with CCRF-CEM was > 100 µM (inactive) in each case.

As to `Cc1ccc(S(=O)(=O)NNC(=O)c2cc(C)c(C)cc2N)cc1`, the GI50 in the test on UO-31 is > 100 µM (inactive); in the test on T47D it was 96.6 µM (inactive); in the test with MOLT-4, 66.2 µM (inactive); in the test on SNB-75 it was > 100 µM (inactive); in the test with OVCAR-4, > 100 µM (inactive); in the test on NCI-H23, > 100 µM (inactive). Moreover, the GI50 in the test with SN12C was > 100 µM (inactive); with HCT-116, > 100 µM (inactive); in the test on HCT-15, over 100 µM; in the test on RXF 393, > 100 µM (inactive); in the test on NCI-H522 it was 47 µM (inactive); in the test on K562 it was > 100 µM (inactive). The GI50 in the test with UACC-62, with SK-OV-3, in the test on NCI-H226, in the test on Malme-3M, in the test with CAKI-1 and in the test on CCRF-CEM was > 100 µM (inactive) in each case.

Turning to `Cc1cc(S(=O)(=O)Nc2nc3ccccc3n2-c2ccccc2)c(S)cc1Cl`, the GI50 with UO-31 is > 100 µM (inactive); in the test with T47D, 9.12 µM (inactive); with MOLT-4, > 100 µM (inactive); in the test with SNB-75, > 100 µM (inactive); in the test on OVCAR-4, > 100 µM (inactive); in the test with HCT-116, > 100 µM (inactive). Moreover, the GI50 with HCT-15 is over 100 µM; with RXF 393, > 100 µM (inactive); in the test with A549 it was > 100 µM (inactive); with NCI-H522, > 100 µM (inactive); in the test with K562, > 100 µM (inactive); in the test on UACC-62, > 100 µM (inactive). Also, the GI50 in the test on NCI-H226, in the test with Malme-3M, in the test with CAKI-1 and in the test with CCRF-CEM was > 100 µM (inactive) throughout.

`C=C1C(=O)O[C@@H]2C[C@@]3(C)CC(=O)C=C(C)[C@@H]3C[C@H]12`: the GI50 was 11.5 µM (inactive) with UO-31; 11.2 µM (inactive) in the test with T47D; 3.04 µM (inactive) in the test on MOLT-4; 16.1 µM (inactive) in the test with SNB-75; 9.1 µM (inactive) in the test on OVCAR-4; 13.8 µM (inactive) in the test on NCI-H23. In addition, the GI50 in the test on SN12C was 11.1 µM (inactive); in the test with HCT-116 it was 5.32 µM (inactive); with HCT-15, 4.03 µM; in the test with RXF 393, 3.94 µM (inactive); with A549, 29.6 µM (inactive); in the test on NCI-H522, 4.46 µM (inactive). Besides, the GI50 in the test with UACC-62 was 14.6 µM (inactive); in the test with SK-OV-3, 37.9 µM (inactive); in the test on NCI-H226, 36.8 µM (inactive); with Malme-3M it was 5.98 µM (inactive); with TK-10, 10.2 µM (inactive); with CAKI-1, 8.36 µM (inactive). The GI50 with CCRF-CEM was 5.83 µM (inactive).

Turning to `N#C/C(=C\n1ccc(=O)[nH]c1=S)C(N)=O`, the GI50 in the test with UO-31, in the test with T47D, in the test with MOLT-4, with SNB-75, in the test on OVCAR-4 and with NCI-H23 was > 100 µM (inactive) throughout. Moreover, the GI50 in the test on SN12C is > 100 µM (inactive); in the test with HCT-116, > 100 µM (inactive); in the test with HCT-15 it was over 100 µM; in the test on RXF 393, > 100 µM (inactive); with A549, > 100 µM (inactive); with NCI-H522, > 100 µM (inactive). Besides, the GI50 with K562, in the test on UACC-62, in the test with SK-OV-3, in the test on NCI-H226, in the test with Malme-3M and in the test with CAKI-1 was > 100 µM (inactive) throughout. The GI50 in the test on CCRF-CEM was > 100 µM (inactive).

Regarding `Fc1ccc(C(OCCN2CCC3CCC(C2)N3C/C=C/c2cccs2)c2ccc(F)cc2)cc1` (stereo unspecified), the GI50 in the test with UO-31 was 12 µM (inactive); with T47D, 3.56 µM (inactive); in the test on MOLT-4 it was 1.21 µM (inactive); in the test on SNB-75, 14.7 µM (inactive); with OVCAR-4 it was 7.36 µM (inactive); in the test with NCI-H23, 8.34 µM (inactive). The GI50 in the test with SN12C was 5.69 µM (inactive); in the test with HCT-116 it was 3.45 µM (inactive); in the test on HCT-15, 4.06 µM; in the test on RXF 393, 3.77 µM (inactive); with A549, 11 µM (inactive); with NCI-H522 it was 5.02 µM (inactive). The GI50 in the test on UACC-62 was 11.5 µM (inactive); in the test with SK-OV-3, 12.9 µM (inactive); with NCI-H226, 7.19 µM (inactive); in the test with Malme-3M, 6.03 µM (inactive); in the test with TK-10 it was 11.1 µM (inactive); in the test with CAKI-1, 10.2 µM (inactive). Also, the GI50 with CCRF-CEM is 8.09 µM (inactive).

Regarding `CCCCC(Sc1cc(Cl)c(C)cc1S(=O)(=O)Nc1nc(N)n[nH]1)C(=O)OC` (stereo unspecified), the GI50 in the test on T47D, in the test on MOLT-4, with SNB-75, in the test on OVCAR-4, in the test on NCI-H23 and in the test on SN12C was > 10 µM (inactive) each time. Further, the GI50 in the test on HCT-116 was > 10 µM (inactive); in the test with HCT-15 it was over 10 µM; in the test on RXF 393, > 10 µM (inactive); in the test with A549, > 10 µM (inactive); in the test on NCI-H522, > 10 µM (inactive); in the test with K562, > 10 µM (inactive). The GI50 in the test on UACC-62, in the test with SK-OV-3, in the test on NCI-H226, in the test with Malme-3M, in the test on TK-10 and in the test on CAKI-1 was > 10 µM (inactive) in each case. Further, the GI50 with CCRF-CEM is > 10 µM (inactive).

As to `Cc1ccc(C(=O)Nc2ccc(CP(=O)(O)O)cc2)cc1NC(=O)Nc1cc(C(=O)Nc2ccc(CP(=O)(O)O)cc2)ccc1C`, the GI50 in the test with UO-31, in the test with T47D, with MOLT-4, in the test with SNB-75, in the test with OVCAR-4 and in the test on NCI-H23 was > 100 µM (inactive) each time. Further, the GI50 was > 100 µM (inactive) with SN12C; > 100 µM (inactive) with HCT-116; over 100 µM with HCT-15; > 100 µM (inactive) in the test with RXF 393; > 100 µM (inactive) in the test with A549; > 100 µM (inactive) in the test on NCI-H522. The GI50 in the test with UACC-62, in the test on SK-OV-3, in the test with NCI-H226, in the test with Malme-3M, in the test on TK-10 and with CAKI-1 was > 100 µM (inactive) each time. The GI50 in the test on CCRF-CEM was > 100 µM (inactive).

In the case of `COc1ccc(-c2nnc3n(C)c4ccccc4n3c2=O)cc1`, the GI50 is 42.8 µM (inactive) in the test with UO-31; > 100 µM (inactive) in the test on T47D; > 100 µM (inactive) in the test on MOLT-4; 20.8 µM (inactive) with SNB-75; > 100 µM (inactive) with OVCAR-4; 40.1 µM (inactive) with NCI-H23. The GI50 in the test on SN12C is 59 µM (inactive); with HCT-116, 48.6 µM (inactive); in the test with HCT-15, over 100 µM; in the test with RXF 393 it was 31.1 µM (inactive); in the test with A549 it was > 100 µM (inactive); with NCI-H522, 77.8 µM (inactive). The GI50 is > 100 µM (inactive) with NCI-H226; > 100 µM (inactive) with Malme-3M; 89.1 µM (inactive) in the test with TK-10; 76 µM (inactive) in the test with CAKI-1; > 100 µM (inactive) in the test on CCRF-CEM.

The record behind these values is ChEMBL document CHEMBL1201862, “PubChem BioAssay data set” (2004).
